{
  "source": "patent US20230255935A1",
  "about": "“ANTI-VIRAL COMPOUNDS AND METHODS FOR SCREENING SAME AND TREATING VIRAL INFECTIONS” (priority 2020, published 2023)",
  "key": {"[1]": {"assay": "in vitro", "conditions": "African green monkey"}, "[2]": {"tested_on": "MERS-CoV", "assay": "microbe, parasite or virus in culture", "conditions": "Middle East respiratory syndrome-related coronavirus, Vero C1008, 48 h"}, "[3]": {"tested_on": "MERS-CoV", "assay_type": "cell-based"}, "[4]": {"tested_on": "MERS-CoV", "assay_type": "cell-based", "remark": "listed apart in the source"}, "[5]": {"tested_on": "MERS-CoV N protein", "assay_type": "cell-based"}, "[6]": {"tested_on": "MHV", "assay_type": "cell-based, mouse hepatitis virus (MHV)"}, "[7]": {"tested_on": "PEDV", "assay_type": "cell-based, porcine epidemic diarrhea virus (PEDV)"}, "[8]": {"tested_on": "MERS-CoV", "assay_type": "cell-based", "remark": "listed apart in the source"}, "[9]": {"tested_on": "SARS-CoV2", "assay_type": "cell-based"}, "[10]": {"molecular_target": "T1, MERS-CoV N-NTD (Middle East respiratory syndrome-related coronavirus, UniProt K9N4V7)"}, "[11]": {"molecular_target": "T1, MERS-CoV N-NTD", "remark": "listed apart in the source"}, "[12]": {"molecular_target": "T2, full-length MERS-CoV N protein (Middle East respiratory syndrome-related coronavirus, UniProt K9N4V7)"}, "[13]": {"molecular_target": "T2, full-length MERS-CoV N protein", "remark": "listed apart in the source"}, "[14]": {"molecular_target": "T2, full-length MERS-CoV N protein", "remark": "listed apart in the source"}, "[15]": {"tested_on": "MERS-CoV"}, "[16]": {"tested_on": "SARS-CoV2"}, "[17]": {"tested_on": "MHV", "assay": "MHV-infected mice treated with PSX-01 (clinical score, body weight, liver histology)", "conditions": "PSX-01 10 mM intraperitoneal"}},
  "note": "Read-outs that look alike come from different tables or passages of the source.",
  "data": [
    {"molecule": "O=C(OCc1ccccc1)N1c2ccccc2CC1CO", "note": "(centres unmarked) [Compound P1, benzyl 2-(hydroxymethyl)-1-indolinecarboxylate]", "values": [
      {"measurement": "CC50", "setting": "[1]", "value": 460, "unit": "µM"},
      {"measurement": "EC50", "setting": "[2]", "value": "> 100", "unit": "µM"}
    ]},
    {"molecule": "CCc1cccc2c3c([nH]c12)C(CC)(CC(=O)O)OCC3", "note": "(centres unmarked) [Compound P2, etodolac]", "values": [
      {"measurement": "CC50", "setting": "[1]", "value": 570, "unit": "µM"},
      {"measurement": "EC50", "setting": "[2]", "value": "> 100", "unit": "µM"}
    ]},
    {"molecule": "CN(C)Cc1c[nH]c2ccc(OCc3ccccc3)cc12", "note": "[PSX-01, 5-benzyloxygramine]", "values": [
      {"measurement": "extracellular viral titer (plaque assay)", "setting": "[3]", "value": "affected the viral titer"},
      {"measurement": "viral production (plaque assay)", "setting": "[3]", "value": "halted"},
      {"measurement": "suppression of viral RNA replication", "setting": "[4]", "value": 40, "unit": "%"},
      {"measurement": "viral RNA replication", "setting": "[4]", "value": "halted"},
      {"measurement": "N protein expression", "setting": "[5]", "value": "suppressed N protein expression in most cells"},
      {"measurement": "intracellular N protein distribution", "setting": "[5]", "value": "condensation of the intracellular N protein fluorescence signal"},
      {"measurement": "cytopathic effect", "setting": "[6]", "value": "significantly reduce the cytopathic effect"},
      {"measurement": "cytopathic effect", "setting": "[7]", "value": "significantly reduce the cytopathic effect"},
      {"measurement": "cytopathic effect", "setting": "[8]", "value": "significantly reduce the cytopathic effect"},
      {"measurement": "viral titer (plaque assay)", "setting": "[9]", "value": "affected the viral titer"},
      {"measurement": "binding to the N protein relative to the other leads", "setting": "[10]", "value": "bound more tightly to the N protein than P1 or P2"},
      {"measurement": "shift in the intrinsic N-NTD fluorescence spectrum", "setting": "[10]", "value": "comparatively larger blue shift"},
      {"measurement": "N-NTD denaturation melting temperature", "setting": "[11]", "value": 45, "unit": "°C"},
      {"measurement": "shift in the fluorescence spectrum of full-length N protein", "setting": "[12]", "value": "“blue shift” was observed"},
      {"measurement": "N protein thermal denaturation", "setting": "[13]", "value": "delayed N protein thermal denaturation"},
      {"measurement": "maximum dimension (Dmax) of N protein", "setting": "[14]", "value": 230},
      {"measurement": "EC50", "setting": "[15]", "value": 32.1, "unit": "µM"},
      {"measurement": "TI (CC50/EC50)", "setting": "[15]", "value": 25.1},
      {"measurement": "EC50", "setting": "[16]", "value": 35, "unit": "µM"},
      {"measurement": "TI (CC50/EC50)", "setting": "[16]", "value": 23},
      {"measurement": "appearance (clinical score)", "setting": "[17]; 4 h before MHV 10^4 pfu, mice", "value": "prevent the appearance change caused by MHV"},
      {"measurement": "liver histology (H&E stain)", "setting": "[17]; MHV infection, day 7", "value": "rescue the increases of adipocytes and inflammation"}
    ]}
  ]
}
